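Compound exposure: 48 hours, 5 concentrations, 96-well plates. Here, GI50 denotes the concentration required for 50% inhibition of growth. TGI marks complete inhibition of growth.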 A value given as a limit tells only on which side of the number the result lay.

Experimental findings from PubChem BioAssay (NCI) are described below.

Test in all cases: NCI-60 cell line screen, 48 h
Assay [1] has as its system EKVX NSCLC.
Assay [2] deals with MALME-3M melanoma.
For assay [3], the system named is SN12C renal.
For assay [4], the system named is HL-60(TB) leukemia.
The subject of assay [5] is TK-10 renal.
The subject of assay [6] is LOX IMVI melanoma.
The test system of assay [7] is SK-MEL-5 melanoma.
The test system of assay [8] is COLO 205 colon.
Assay [9] has as its system T-47D breast.

`N=C(c1ccccc1)N(O)C1CCCCC1`: the TGI in assay [1], in assay [2], in assay [3], in [4], in [5] and in assay [6] was over 100 µM in each case. Further, the TGI in [7] and in assay [8] was over 100 µM throughout.
With `CC(=O)OC1CCn2nnc(COC(=O)NC(C)C)c21` (stereo not drawn), the TGI in assay [1], in assay [2], in assay [3], in assay [5] and in assay [7] was over 100 µM throughout.
For `Cc1c(C(=O)/C=C/c2ccc(Cl)cc2)[n+](=O)c2ccccc2n1[O-]`, the TGI in [1] came to 31.2 µM; in assay [2] it was 38.1 µM; in assay [3] it was 23.3 µM; in [4] it was 35.2 µM; in assay [5], 35.5 µM; in [6] it was 20.5 µM. The molecule also yielded a TGI in assay [8] of 27.1 µM.
Take `Cc1ccccc1C(=O)Oc1ccc(Oc2ccccc2)cc1`: the TGI in assay [1], in [2], in assay [3], in [4], in assay [5] and in assay [7] was over 100 µM throughout. In assay [8], the TGI was over 100 µM.
As for `N=C(N)SCCc1cn2ccccc2n1`, the TGI in [1], in assay [2], in assay [3], in assay [4], in assay [5] and in assay [6] was over 100 µM throughout. For the same molecule, the TGI in assay [7] and in assay [8] was over 100 µM throughout.
For the molecule `Cn1c(CCC#N)nc2ccc(Br)cc2c1=O`, the TGI in assay [1], in assay [2], in [3], in assay [4], in assay [5] and in assay [6] was over 100 µM in each case. The TGI in assay [7] and in [8] was over 100 µM each time.
`CN(C)CCn1c2ccccc2c2nc3cc4ccccc4cc3nc21`: the TGI in assay [1] worked out at 31.8 µM; in [2] it was 25.2 µM; in assay [3] it was 17.8 µM; in assay [4], 11.1 µM; in assay [5], 26.4 µM; in assay [6] it was 15.6 µM. For the same molecule, the TGI in [7] was found to be 26.5 µM; in [8], 12.3 µM.
Consider `O=C(CCC(=O)Nc1ccc(Cl)cc1)CC(=O)c1ccc(F)cc1`, for which the TGI in [2], in [3], in assay [4], in assay [5], in [6] and in assay [8] was over 100 µM each time.
On to `O=c1[nH]c(Br)nc2c(Br)c[nH]c12`, for which the TGI in assay [1], in [2], in [3], in [4], in [5] and in [6] was over 100 µM throughout. The TGI in assay [7] and in assay [8] was over 100 µM each time.
Take `Cc1ccc(C)c(NC(=O)c2cc(-c3ccc([N+](=O)[O-])cc3)nc(N)n2)c1`: the TGI in assay [1], in assay [2], in assay [3], in assay [4], in assay [5] and in assay [6] was over 100 µM throughout. Further, the TGI in assay [7] and in assay [8] was over 100 µM in each case.
Turning to `Cc1ccc(NC(=O)/C(CC(=O)c2c[n+](=O)c3ccccc3n2O)=N\NC(=O)C[n+]2ccccc2)cc1`, the TGI in [1], in assay [2], in [3], in assay [4], in assay [5] and in assay [6] was over 100 µM in each case. Besides, the TGI in assay [7] and in assay [8] was over 100 µM each time.
`O=c1/c(=C/c2ccc(Cl)cc2Cl)sc2nc3ccccc3n12`: the TGI in assay [1], in assay [2], in assay [3], in assay [4], in assay [5] and in [6] was over 100 µM each time. For the same molecule, the TGI in assay [7] and in assay [8] was over 100 µM each time.
Consider `CC(C)(C)c1ccc([I+]c2ccc(C(C)(C)C)cc2)cc1`, for which the GI50 was 1.42 µM in [1]; 0.545 µM in assay [2]; 1.99 µM in assay [3]; 0.55 µM in assay [4]; 2.62 µM in assay [5]; 1.31 µM in assay [6]. Besides, the GI50 in assay [7] was 0.348 µM; in assay [9] it was 0.745 µM; in assay [8] it was 1.06 µM. Also, the TGI in [1] was determined as 5.24 µM; in assay [2], 2.01 µM; in [3], 5.21 µM; in assay [4], 2.46 µM; in assay [5], 9.75 µM; in assay [6], 2.74 µM. Further, the TGI came to 1.19 µM in assay [7], 5.67 µM in assay [9] and 2.8 µM in assay [8].
`C=C1CC(CCCl)(c2ccccc2)OC1=O` (stereo not drawn): the TGI is over 63.1 µM in assay [1]; 56.8 µM in [2]; over 62.7 µM in assay [3]; 44.8 µM in [4]; over 77.7 µM in assay [5]; over 62.2 µM in assay [6]. Further, the TGI is over 100 µM in [7] and over 58 µM in [8].
`CCCCCCCCCCCCCCCC(=O)OCC(O)C1OC(=O)C(O)=C1O` (stereo not drawn): the TGI was over 100 µM in [1]; over 100 µM in assay [2]; 96.9 µM in [3]; 65.9 µM in [4]; 46.2 µM in [6]; over 100 µM in assay [7]. Moreover, the TGI in assay [9] and in [8] was over 100 µM throughout.
On to `CC(C)C(=O)N[C@@H](C)C(=O)N(Cc1ccc2ccccc2c1)N=O`, for which the TGI in assay [1], in assay [2], in [3], in [5], in assay [6] and in assay [7] was over 100 µM throughout. This molecule gave a TGI in assay [8] of over 100 µM.
For `O=C(COc1cccc(/C=C2\COc3ccccc3C2=O)c1)Nc1nccs1`, the GI50 in assay [1] is 4.11 µM; in [2], 1.82 µM; in [3], 2.08 µM; in [4], 1.59 µM; in assay [5], 3.05 µM; in [6], 1.82 µM. Moreover, the GI50 was 5.27 µM in [7], 3.13 µM in assay [9] and 2.26 µM in assay [8]. Besides, the TGI in [1] was 17.1 µM; in assay [2], 3.49 µM; in [3], 5.25 µM; in [4], 3.44 µM; in assay [5] it was 5.52 µM; in assay [6], 3.4 µM. Moreover, the TGI in assay [7] came to 19.5 µM; in [9] it was 12.5 µM; in assay [8], 5.24 µM.
Consider `O=c1c2ccc3cccc4c(=O)cc(c5ccccc15)-c2c34`, for which the TGI in assay [1], in assay [2], in assay [3], in assay [4], in assay [5] and in assay [6] was over 100 µM throughout. In addition, the TGI in [7] and in assay [8] was over 100 µM each time.
As to `Nc1ccc(Nc2nc(F)nc(-c3c4ccccc4c4n3CCS4)n2)cc1`, the TGI in assay [1] amounted to 48.2 µM; in assay [2], 31.6 µM; in assay [3], 33.4 µM; in assay [5] it was 34.2 µM; in assay [6], 24.6 µM; in [7] it was 25.8 µM. This molecule returned a TGI in [8] of 41.5 µM.
`CC(=O)N1CC2Nc3ccccc3C2CC1CO` (stereo not drawn): the TGI in assay [1], in assay [2], in assay [3], in [4], in [5] and in assay [6] was over 100 µM each time. The TGI in assay [7] and in assay [8] was over 100 µM in each case.
For `COc1ccc(C(c2ccc(C(C)C)cc(=O)c2O)c2c(O)cc3oc(-c4ccccc4)cc(=O)c3c2O)cc1` (stereo not drawn), the TGI in assay [1] was over 100 µM; in assay [3], 70.9 µM; in [4] it was 28.8 µM; in [5] it was 90.3 µM; in [6], 47.7 µM; in assay [7], 29.4 µM. In addition, the TGI in assay [8] turned out to be 25.9 µM.
`C(=C\c1csnn1)/c1cccnc1`: the TGI in assay [1], in assay [2], in assay [3], in assay [4], in assay [5] and in assay [6] was over 100 µM in each case. The molecule also displayed a TGI in assay [8] of over 100 µM.
As for `O=C(O)/C(=C/c1ccccc1[N+](=O)[O-])c1ccccc1`, the TGI in assay [1], in assay [3], in assay [4], in assay [5], in assay [6] and in [7] was over 100 µM throughout. In assay [8], the TGI was over 100 µM.
In the case of `CC(=O)OC12c3ccccc3C1CCCCCC21OCCCO1` (stereo not drawn), the TGI in assay [3], in [4], in [5], in assay [6], in assay [7] and in assay [8] was over 100 µM in each case.
For `O=c1cc(Cl)nc[nH]1`, the TGI in [1], in assay [2], in [3], in assay [4], in [5] and in assay [6] was over 100 µM each time. The TGI in assay [7] and in assay [8] was over 100 µM in each case.
As to `CCC[CH2][Sn]([CH2]CCC)([O]C(=O)c1cccc(F)c1)[O]C(=O)c1cccc(F)c1`, the GI50 is 1.3 µM in assay [1]; 0.907 µM in [2]; 1.29 µM in [3]; 1.29 µM in assay [5]; 0.605 µM in [6]; 1.39 µM in assay [7]. The GI50 in assay [8] is 0.852 µM. The TGI in [1] was determined as 2.96 µM; in assay [2] it was 2.25 µM; in assay [3], 3.16 µM; in [5], 2.58 µM; in assay [6], 2.99 µM; in assay [7], 2.76 µM. The same molecule registered a TGI in assay [8] of 2.18 µM.
Turning to `O=C(Nc1c(-c2nc3ccccc3[nH]2)sc(=S)n1-c1ccccc1)c1ccccc1`, the TGI in assay [1], in assay [2], in assay [3], in [4], in assay [5] and in assay [6] was over 100 µM in each case. Besides, the TGI in [7] and in assay [8] was over 100 µM each time.
Consider `O=c1ccccc2cccc(O)c12`, for which the TGI in assay [1], in assay [3], in [4], in assay [5], in assay [6] and in [7] was over 100 µM in each case. In assay [8], this molecule came in with a TGI of over 100 µM.
With `Cc1cc(NS(=O)(=O)c2ccc(NC(=O)c3cccc4c(N)c5ccccc5nc34)cc2)no1`, the TGI was over 100 µM in assay [1]; 77.4 µM in assay [2]; 40.3 µM in [3]; over 100 µM in assay [5]; 65.8 µM in [6]; 53.6 µM in [8].
Consider `COc1ccc2c3c1C(=O)CCC3CO2` (stereo not drawn), for which the TGI in assay [1], in assay [2], in assay [3], in assay [4], in assay [5] and in assay [6] was over 100 µM each time. Moreover, the TGI in assay [7] and in assay [8] was over 100 µM throughout.
Regarding `CCCNCc1nc2ccc(Br)cc2c(=O)n1CCC`, the TGI came out at 33.3 µM in assay [1]; 26.4 µM in assay [2]; 26.7 µM in assay [3]; 30.8 µM in [4]; 17.7 µM in [6]; 21.6 µM in assay [7]. In [8], the TGI is 27.7 µM.
Take `CCOC(=O)/N=C(\N)SCc1ccccc1`: the TGI in assay [1], in assay [2], in [3], in [4], in assay [5] and in [6] was over 100 µM each time. This molecule also came in with a TGI in assay [7] of over 100 µM.
